In ChEMBL document CHEMBL4138123, “Design, synthesis and biological evaluation of novel pyrazolochalcones as potential modulators of PI3K/Akt/mTOR pathway and inducers of apoptosis in breast cancer cells” (Eur J Med Chem, 2017):
Activity calls are given as the source filed them. The rule behind the calls is not given here.

Legend:
SNB-75 [1] = experiment: Cytotoxicity against human SNB75 cells assessed as cell growth at 0.01 uM after 48 hrs by sulforhodamine B assay relative to control; format: functional; settings: SNB-75, 48 h, read-out: Activity
SNB-75 [2] = experiment: Cytotoxicity against human SNB75 cells assessed as cell growth at 10 uM after 48 hrs by sulforhodamine B assay relative to control; format: functional; settings: SNB-75, 48 h, read-out: Activity
SNB-75 [3] = experiment: Cytotoxicity against human SNB75 cells assessed as cell growth at 0.1 uM after 48 hrs by sulforhodamine B assay relative to control; format: functional; settings: SNB-75, 48 h, read-out: Activity
MCF7 [4] = experiment: Induction of intrinsic apoptosis in human MCF7 cells assessed as effect on mitochondrial membrane depolarization at 2 uM after 18 hrs by DiOC6 staining-based FACS analysis (reference value: 2%); format: functional
SF-295 [5] = experiment: Cytotoxicity against human SF295 cells assessed as cell growth at 0.01 uM after 48 hrs by sulforhodamine B assay relative to control; format: functional; settings: SF-295, 48 h, read-out: Activity
SNB-75 [6] = experiment: Cytotoxicity against human SNB75 cells assessed as cell growth at 1 uM after 48 hrs by sulforhodamine B assay relative to control; format: functional; settings: SNB-75, 48 h, read-out: Activity
CAKI-1 [7] = experiment: Cytotoxicity against human Caki1 cells assessed as cell growth at 100 uM after 48 hrs by sulforhodamine B assay relative to control; format: functional; settings: CAKI-1, 48 h, read-out: Activity
SF-295 [8] = experiment: Cytotoxicity against human SF295 cells assessed as growth inhibition after 48 hrs by sulforhodamine B assay; format: functional; settings: SF-295, 48 h
SNB-75 [9] = experiment: Cytotoxicity against human SNB75 cells assessed as cell growth at 100 uM after 48 hrs by sulforhodamine B assay relative to control; format: functional; settings: SNB-75, 48 h, read-out: Activity
MCF7 [10] = experiment: Downregulation of Akt1 mRNA expression in human MCF7 cells at 2 uM after 48 hrs by qRT-PCR analysis; format: functional, cell-based
MCF7 [11] = experiment: Induction of apoptosis in human MCF7 cells assessed as necrotic cells at 2 uM after 24 hrs by Annexin-V FITC/propidium iodide staining-based FACS analysis (reference value: 0.2%); format: functional
SNB-75 [12] = experiment: Cytotoxicity against human SNB75 cells assessed as growth inhibition after 48 hrs by sulforhodamine B assay; format: functional; settings: SNB-75, 48 h
SF-295 [13] = experiment: Cytotoxicity against human SF295 cells assessed as cell growth at 0.1 uM after 48 hrs by sulforhodamine B assay relative to control; format: functional; settings: SF-295, 48 h, read-out: Activity
CAKI-1 [14] = experiment: Cytotoxicity against human Caki1 cells assessed as cell growth at 0.01 uM after 48 hrs by sulforhodamine B assay relative to control; format: functional; settings: CAKI-1, 48 h, read-out: Activity
MCF7 [15] = experiment: Cell cycle arrest in human MCF7 cells assessed as accumulation at G0/G1 phase at 2 uM after 48 hrs by flow cytometric analysis (reference value: 34.2%); format: functional
SF-295 [16] = experiment: Cytotoxicity against human SF295 cells assessed as cell growth at 1 uM after 48 hrs by sulforhodamine B assay relative to control; format: functional; settings: SF-295, 48 h, read-out: Activity
CAKI-1 [17] = experiment: Cytotoxicity against human Caki1 cells assessed as growth inhibition after 48 hrs by sulforhodamine B assay; format: functional; settings: CAKI-1, 48 h
CAKI-1 [18] = experiment: Cytotoxicity against human Caki1 cells assessed as cell growth at 0.1 uM after 48 hrs by sulforhodamine B assay relative to control; format: functional; settings: CAKI-1, 48 h, read-out: Activity
MCF7 [19] = experiment: Inhibition of PI3K in human MCF7 cells assessed as downregulation of phosphorylated Akt levels at 2 uM after 24 hrs by Western blot analysis; format: cell-based
MCF7 [20] = experiment: Downregulation of Bcl-2 mRNA expression in human MCF7 cells at 2 uM after 48 hrs by qRT-PCR analysis; format: functional, cell-based
SF-295 [21] = experiment: Cytotoxicity against human SF295 cells assessed as cell growth at 100 uM after 48 hrs by sulforhodamine B assay relative to control; format: functional; settings: SF-295, 48 h, read-out: Activity
MCF7 [22] = experiment: Cell cycle arrest in human MCF7 cells assessed as accumulation at G2/M phase at 2 uM after 48 hrs by flow cytometric analysis (reference value: 8.1%); format: functional
MCF7 [23] = experiment: Downregulation of PI3K protein expression in human MCF7 cells at 2 uM after 24 hrs by Western blot analysis; format: functional, cell-based
CAKI-1 [24] = experiment: Cytotoxicity against human Caki1 cells assessed as cell growth at 1 uM after 48 hrs by sulforhodamine B assay relative to control; format: functional; settings: CAKI-1, 48 h, read-out: Activity
HOP-92 [25] = experiment: Cytotoxicity against human HOP92 cells assessed as cell growth at 100 uM after 48 hrs by sulforhodamine B assay relative to control; format: functional; settings: HOP-92, 48 h, read-out: Activity
LOX IMVI [26] = experiment: Cytotoxicity against human LOXIMVI cells assessed as cell growth at 0.1 uM after 48 hrs by sulforhodamine B assay relative to control; format: functional; settings: read-out: Activity
SK-MEL-2 [27] = experiment: Cytotoxicity against human SK-MEL-2 cells assessed as cell growth at 100 uM after 48 hrs by sulforhodamine B assay relative to control; format: functional; settings: SK-MEL-2, 48 h, read-out: Activity
HOP-92 [28] = experiment: Cytotoxicity against human HOP92 cells assessed as cell growth at 1 uM after 48 hrs by sulforhodamine B assay relative to control; format: functional; settings: HOP-92, 48 h, read-out: Activity
HOP-92 [29] = experiment: Cytotoxicity against human HOP92 cells assessed as cell growth at 0.1 uM after 48 hrs by sulforhodamine B assay relative to control; format: functional; settings: HOP-92, 48 h, read-out: Activity
SK-MEL-2 [30] = experiment: Cytotoxicity against human SK-MEL-2 cells assessed as cell growth at 10 uM after 48 hrs by sulforhodamine B assay relative to control; format: functional; settings: SK-MEL-2, 48 h, read-out: Activity
LOX IMVI [31] = experiment: Cytotoxicity against human LOXIMVI cells assessed as cell growth at 100 uM after 48 hrs by sulforhodamine B assay relative to control; format: functional; settings: read-out: Activity
SK-MEL-2 [32] = experiment: Cytotoxicity against human SK-MEL-2 cells assessed as cell growth at 1 uM after 48 hrs by sulforhodamine B assay relative to control; format: functional; settings: SK-MEL-2, 48 h, read-out: Activity
HOP-92 [33] = experiment: Cytotoxicity against human HOP92 cells assessed as cell growth at 0.01 uM after 48 hrs by sulforhodamine B assay relative to control; format: functional; settings: HOP-92, 48 h, read-out: Activity
SK-MEL-2 [34] = experiment: Cytotoxicity against human SK-MEL-2 cells assessed as cell growth at 0.1 uM after 48 hrs by sulforhodamine B assay relative to control; format: functional; settings: SK-MEL-2, 48 h, read-out: Activity
HOP-92 [35] = experiment: Cytotoxicity against human HOP92 cells assessed as cell growth at 10 uM after 48 hrs by sulforhodamine B assay relative to control; format: functional; settings: HOP-92, 48 h, read-out: Activity
LOX IMVI [36] = experiment: Cytotoxicity against human LOXIMVI cells assessed as cell growth at 10 uM after 48 hrs by sulforhodamine B assay relative to control; format: functional; settings: read-out: Activity
LOX IMVI [37] = experiment: Cytotoxicity against human LOXIMVI cells assessed as cell growth at 0.01 uM after 48 hrs by sulforhodamine B assay relative to control; format: functional; settings: read-out: Activity
LOX IMVI [38] = experiment: Cytotoxicity against human LOXIMVI cells assessed as cell growth at 1 uM after 48 hrs by sulforhodamine B assay relative to control; format: functional; settings: read-out: Activity
HOP-92 [39] = experiment: Cytotoxicity against human HOP92 cells assessed as growth inhibition after 48 hrs by sulforhodamine B assay; format: functional; settings: HOP-92, 48 h
SK-MEL-2 [40] = experiment: Cytotoxicity against human SK-MEL-2 cells assessed as cell growth at 0.01 uM after 48 hrs by sulforhodamine B assay relative to control; format: functional; settings: SK-MEL-2, 48 h, read-out: Activity
SF-295 [41] = experiment: Cytotoxicity against human SF295 cells assessed as cell growth at 10 uM after 48 hrs by sulforhodamine B assay relative to control; format: functional; settings: SF-295, 48 h, read-out: Activity

SMILES	growth at 0.01 µM (SNB-75 [1]) [%]	growth at 10 µM (SNB-75 [2]) [%]	growth at 0.1 µM (SNB-75 [3]) [%]	Activity (MCF7 [4]) [%]	growth at 0.01 µM (SF-295 [5]) [%]	growth at 1 µM (SNB-75 [6]) [%]	growth at 100 µM (CAKI-1 [7]) [%]	GI50 (SF-295 [8]) [µM]	LC50 (SF-295 [8]) [µM]	TGI (SF-295 [8]) [µM]	growth at 100 µM (SNB-75 [9]) [%]	Activity (MCF7 [10])	Activity (MCF7 [11]) [%]	growth at 0.01 µM (CAKI-1 [14]) [%]	LC50 (CAKI-1 [17]) [µM]	growth at 0.1 µM (CAKI-1 [18]) [%]	phospho-Akt downregulation (active/inactive) (MCF7 [19])	Activity (MCF7 [20])	Activity (MCF7 [23])	growth at 1 µM (CAKI-1 [24]) [%]	further results
COc1cc(C(=O)/C=C/c2cc(-c3ccc4c(c3)OCO4)n[nH]2)cc(OC)c1OC	85	-14	87	26	93	90	-82	2.58	36.4	10.1	-100	Active	0.1	96	26.1	97	Active	Active	Active	83	GI50 (SNB-75 [12]): 2.4 µM; LC50 (concentration killing 50% of cells) (SNB-75 [12]): 26.1 µM; TGI (SNB-75 [12]): 7.27 µM; growth at 0.1 µM (SF-295 [13]): 95%; Activity (MCF7 [15]): 39%; growth at 1 µM (SF-295 [16]): 85%; GI50 (CAKI-1 [17]): 1.99 µM; TGI (CAKI-1 [17]): 5.65 µM; growth at 100 µM (SF-295 [21]): -89%; Activity (MCF7 [22]): 1.98%
COc1ccc(C(=O)/C=C/c2cc(-c3cc(OC)c(OC)c(OC)c3)n[nH]2)cc1							1					Active		95	> 100	93	Active	Active	Active	89	growth at 100 µM (HOP-92 [25]): -36%; growth at 0.1 µM (LOX IMVI [26]): 93%; growth at 100 µM (SK-MEL-2 [27]): -50%; growth at 1 µM (HOP-92 [28]): 53%; growth at 0.1 µM (HOP-92 [29]): 83%; growth at 10 µM (SK-MEL-2 [30]): 21%; growth at 100 µM (LOX IMVI [31]): -32%; growth at 1 µM (SK-MEL-2 [32]): 97%; growth at 0.01 µM (HOP-92 [33]): 87%; growth at 0.1 µM (SK-MEL-2 [34]): 90%; growth at 10 µM (HOP-92 [35]): -56%; growth at 10 µM (LOX IMVI [36]): -92%; growth at 0.01 µM (LOX IMVI [37]): 95%; growth at 1 µM (LOX IMVI [38]): 85%; TGI (HOP-92 [39]): 3.04 µM; growth at 0.01 µM (SK-MEL-2 [40]): 92%
COc1ccc(-c2cc(/C=C/C(=O)c3ccc(OC)c(OC)c3)[nH]n2)cc1	88	-53	79	26	98	74	-70	2.08	22	5.37	-100	Active	0.7	98	7.96	96	Active	Active	Active	77	GI50 (SNB-75 [12]): 1.55 µM; LC50 (concentration killing 50% of cells) (SNB-75 [12]): 9.51 µM; TGI (SNB-75 [12]): 3.84 µM; growth at 0.1 µM (SF-295 [13]): 97%; Activity (MCF7 [15]): 44.6%; growth at 1 µM (SF-295 [16]): 88%; GI50 (CAKI-1 [17]): 1.55 µM; TGI (CAKI-1 [17]): 3.52 µM; growth at 10 µM (SF-295 [41]): -33%; growth at 100 µM (SF-295 [21]): -83%; Activity (MCF7 [22]): 16.5%
